In US10538555B2, “Macrocyclic inhibitors of the PD-1/PD-L1 and CD80(B7-1)/PD-L1 protein/protein interactions” (BRISTOL-MYERS SQUIBB COMPANY, priority 2014, dated 2020):
Where a SMILES comes first, the peptide text is derived from it. Bridges are numbered along the chain shown (N, C = ends). [ ]: non-standard residue; d: D form. Phe(3,4-F2) = N[C@@H](Cc1ccc(F)c(F)c1)C(=O)O; d(cisHyp) = O=C(O)[C@H]1C[C@@H](O)CN1; NMeF = CN[C@@H](Cc1ccccc1)C(=O)O; dNMeF = CN[C@H](Cc1ccccc1)C(=O)O; NMeNle = CCCC[C@H](NC)C(=O)O; Orn = NCCC[C@H](N)C(=O)O; Dab = NCC[C@H](N)C(=O)O

The compounds below were run against T1, Human PD-L1/PD-1 (Homo sapiens, UniProt Q9NZQ7) (assay: HTRF Human PD-L1/PD-1 binding assay (PD-1-Ig/PD-L1-His)). Conditions: PD-L1-His 10 nM, PD-1-Ig 20 nM; class symbol; read-out: HTRF Human PD-L1/PD-1 Binding Assay IC50 Range.
T1 construct: TVMV protease cleavage site (C); made in house; host or cells: HEK293T cells
Procedure, shortened: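 Truncated Fc-fused human PD-1 (aa 25-167) at 20 nM and His-tagged PD-L1 (aa 18-239) at 10 nM final are used, with peptides preincubated 15 min with PD-L1. Detection uses europium-cryptate anti-Ig and APC anti-His antibodies; 665/620 nm ratio.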

T1 sequence (Q9NZQ7 with tags, fused parts or gaps): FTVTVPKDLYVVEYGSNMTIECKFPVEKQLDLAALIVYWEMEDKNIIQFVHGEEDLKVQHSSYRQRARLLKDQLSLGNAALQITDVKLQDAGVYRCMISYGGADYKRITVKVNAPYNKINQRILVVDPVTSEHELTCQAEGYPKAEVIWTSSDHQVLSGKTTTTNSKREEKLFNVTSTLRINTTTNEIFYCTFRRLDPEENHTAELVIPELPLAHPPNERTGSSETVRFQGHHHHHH

IC50 | SMILES
1 to 9.9 nM | CCCC[C@H]1C(=O)N2C[C@H](O)C[C@@H]2C(=O)N[C@@H](CC(=O)O)C(=O)N[C@@H](C(C)C)C(=O)N(C)[C@@H](Cc2ccccc2)C(=O)N[C@@H](CCN)C(=O)N2C[C@H](O)C[C@@H]2C(=O)N[C@@H](Cc2c[nH]c3ccccc23)C(=O)N[C@@H](Cc2ccc(O)cc2)C(=O)N[C@@H](CC(C)C)C(=O)N[C@H](C(=O)NCC(N)=O)CSCC(=O)N[C@@H](Cc2ccc(F)c(F)c2)C(=O)N(C)[C@@H](Cc2ccccc2)C(=O)N1C [Example 9298] ({CH2CO}-[Phe(3,4-F2)][NMeF][NMeNle][d(cisHyp)]DV[NMeF][Dab][d(cisHyp)]WYLCG-NH2; thioether N-13)
1 to 9.9 nM | CCCC[C@H]1C(=O)N2C[C@H](O)C[C@@H]2C(=O)N[C@@H](CC(=O)O)C(=O)N[C@@H](C(C)C)C(=O)N(C)[C@H](Cc2ccccc2)C(=O)N[C@@H](CCN)C(=O)N2C[C@H](O)C[C@@H]2C(=O)N[C@@H](Cc2c[nH]c3ccccc23)C(=O)N[C@@H](Cc2ccc(O)cc2)C(=O)N[C@@H](CC(C)C)C(=O)N[C@H](C(=O)NCC(N)=O)CSCC(=O)N[C@@H](Cc2ccc(F)c(F)c2)C(=O)N(C)[C@@H](Cc2ccccc2)C(=O)N1C [Example 9299] ({CH2CO}-[Phe(3,4-F2)][NMeF][NMeNle][d(cisHyp)]DV[dNMeF][Dab][d(cisHyp)]WYLCG-NH2; thioether N-13)
1 to 9.9 nM | CCCC[C@H]1C(=O)N2C[C@H](O)C[C@@H]2C(=O)N[C@@H](CC(=O)O)C(=O)N[C@@H](C(C)C)C(=O)N(C)[C@@H](Cc2ccccc2)C(=O)N[C@@H](CCC(N)=O)C(=O)N2C[C@H](O)C[C@@H]2C(=O)N[C@@H](Cc2c[nH]c3ccccc23)C(=O)N[C@@H](Cc2ccc(O)cc2)C(=O)N[C@@H](CCCN)C(=O)N[C@H](C(=O)NCC(N)=O)CSCC(=O)N[C@@H](Cc2ccc(F)c(F)c2)C(=O)N(C)[C@@H](Cc2ccccc2)C(=O)N1C [Example 9302] ({CH2CO}-[Phe(3,4-F2)][NMeF][NMeNle][d(cisHyp)]DV[NMeF]Q[d(cisHyp)]WY[Orn]CG-NH2; thioether N-13)
1 to 9.9 nM | CCCC[C@H]1C(=O)N2C[C@H](O)C[C@@H]2C(=O)N[C@@H](CC(=O)O)C(=O)N[C@@H](C(C)C)C(=O)N(C)[C@@H](Cc2ccccc2)C(=O)N[C@@H](CCCCN)C(=O)N2C[C@H](O)C[C@@H]2C(=O)N[C@@H](Cc2c[nH]c3ccccc23)C(=O)N[C@@H](Cc2ccc(O)cc2)C(=O)N[C@@H](CCCN)C(=O)N[C@H](C(=O)NCC(N)=O)CSCC(=O)N[C@@H](Cc2ccc(F)c(F)c2)C(=O)N(C)[C@@H](Cc2ccccc2)C(=O)N1C [Example 9306] ({CH2CO}-[Phe(3,4-F2)][NMeF][NMeNle][d(cisHyp)]DV[NMeF]K[d(cisHyp)]WY[Orn]CG-NH2; thioether N-13)

Continued, compound first:

SMILES | IC50
CCCC[C@H]1C(=O)N2C[C@H](O)C[C@@H]2C(=O)N[C@@H](CC(=O)O)C(=O)N[C@@H](C(C)C)C(=O)N(C)[C@@H](Cc2ccccc2)C(=O)N[C@@H](CC(=O)O)C(=O)N2C[C@H](O)C[C@@H]2C(=O)N[C@@H](Cc2c[nH]c3ccccc23)C(=O)N[C@@H](Cc2ccc(O)cc2)C(=O)N[C@@H](CCCN)C(=O)N[C@H](C(=O)NCC(N)=O)CSCC(=O)N[C@@H](Cc2ccc(F)c(F)c2)C(=O)N(C)[C@@H](Cc2ccccc2)C(=O)N1C [Example 9300] ({CH2CO}-[Phe(3,4-F2)][NMeF][NMeNle][d(cisHyp)]DV[NMeF]D[d(cisHyp)]WY[Orn]CG-NH2; thioether N-13) | 1 to 9.9 nM
CCCC[C@H]1C(=O)N2C[C@H](O)C[C@@H]2C(=O)N[C@@H](CC(=O)O)C(=O)N[C@@H](C(C)C)C(=O)N(C)[C@H](Cc2ccccc2)C(=O)N[C@@H](CC(=O)O)C(=O)N2C[C@H](O)C[C@@H]2C(=O)N[C@@H](Cc2c[nH]c3ccccc23)C(=O)N[C@@H](Cc2ccc(O)cc2)C(=O)N[C@@H](CCCN)C(=O)N[C@H](C(=O)NCC(N)=O)CSCC(=O)N[C@@H](Cc2ccc(F)c(F)c2)C(=O)N(C)[C@@H](Cc2ccccc2)C(=O)N1C [Example 9301] ({CH2CO}-[Phe(3,4-F2)][NMeF][NMeNle][d(cisHyp)]DV[dNMeF]D[d(cisHyp)]WY[Orn]CG-NH2; thioether N-13) | 1 to 9.9 nM
CCCC[C@H]1C(=O)N2C[C@H](O)C[C@@H]2C(=O)N[C@@H](CC(=O)O)C(=O)N[C@@H](C(C)C)C(=O)N(C)[C@H](Cc2ccccc2)C(=O)N[C@@H](CCC(N)=O)C(=O)N2C[C@H](O)C[C@@H]2C(=O)N[C@@H](Cc2c[nH]c3ccccc23)C(=O)N[C@@H](Cc2ccc(O)cc2)C(=O)N[C@@H](CCCN)C(=O)N[C@H](C(=O)NCC(N)=O)CSCC(=O)N[C@@H](Cc2ccc(F)c(F)c2)C(=O)N(C)[C@@H](Cc2ccccc2)C(=O)N1C [Example 9303] ({CH2CO}-[Phe(3,4-F2)][NMeF][NMeNle][d(cisHyp)]DV[dNMeF]Q[d(cisHyp)]WY[Orn]CG-NH2; thioether N-13) | 1 to 9.9 nM
CCCC[C@H]1C(=O)N2C[C@H](O)C[C@@H]2C(=O)N[C@@H](CC(=O)O)C(=O)N[C@@H](C(C)C)C(=O)N(C)[C@H](Cc2ccccc2)C(=O)N[C@@H](CCCCN)C(=O)N2C[C@H](O)C[C@@H]2C(=O)N[C@@H](Cc2c[nH]c3ccccc23)C(=O)N[C@@H](Cc2ccc(O)cc2)C(=O)N[C@@H](CCCN)C(=O)N[C@H](C(=O)NCC(N)=O)CSCC(=O)N[C@@H](Cc2ccc(F)c(F)c2)C(=O)N(C)[C@@H](Cc2ccccc2)C(=O)N1C [Example 9307] ({CH2CO}-[Phe(3,4-F2)][NMeF][NMeNle][d(cisHyp)]DV[dNMeF]K[d(cisHyp)]WY[Orn]CG-NH2; thioether N-13) | 1 to 9.9 nM
CCCC[C@H]1C(=O)N2C[C@H](O)C[C@@H]2C(=O)N[C@@H](CC(=O)O)C(=O)N[C@@H](C(C)C)C(=O)N(C)[C@@H](Cc2ccccc2)C(=O)N[C@@H](CCCN)C(=O)N2C[C@H](O)C[C@@H]2C(=O)N[C@@H](Cc2c[nH]c3ccccc23)C(=O)N[C@@H](Cc2ccc(O)cc2)C(=O)N[C@@H](CCCN)C(=O)N[C@H](C(=O)NCC(N)=O)CSCC(=O)N[C@@H](Cc2ccc(F)c(F)c2)C(=O)N(C)[C@@H](Cc2ccccc2)C(=O)N1C [Example 9308] ({CH2CO}-[Phe(3,4-F2)][NMeF][NMeNle][d(cisHyp)]DV[NMeF][Orn][d(cisHyp)]WY[Orn]CG-NH2; thioether N-13) | 1 to 9.9 nM
CCCC[C@H]1C(=O)N2C[C@H](O)C[C@@H]2C(=O)N[C@@H](CC(=O)O)C(=O)N[C@@H](C(C)C)C(=O)N(C)[C@H](Cc2ccccc2)C(=O)N[C@@H](CCCN)C(=O)N2C[C@H](O)C[C@@H]2C(=O)N[C@@H](Cc2c[nH]c3ccccc23)C(=O)N[C@@H](Cc2ccc(O)cc2)C(=O)N[C@@H](CCCN)C(=O)N[C@H](C(=O)NCC(N)=O)CSCC(=O)N[C@@H](Cc2ccc(F)c(F)c2)C(=O)N(C)[C@@H](Cc2ccccc2)C(=O)N1C [Example 9309] ({CH2CO}-[Phe(3,4-F2)][NMeF][NMeNle][d(cisHyp)]DV[dNMeF][Orn][d(cisHyp)]WY[Orn]CG-NH2; thioether N-13) | 1 to 9.9 nM

Same assay, conditions: PD-L1-His 10 nM, PD-1-Ig 20 nM; read-out: HTRF Human PD-L1/PD-1 Binding Assay IC50

IC50 | SMILES
11.7 nM | CCCC[C@H]1C(=O)N2C[C@H](O)C[C@@H]2C(=O)N[C@@H](CC(=O)O)C(=O)N[C@@H](C(C)C)C(=O)N(C)[C@@H](Cc2ccccc2)C(=O)N[C@@H](CC(N)=O)C(=O)N2C[C@H](O)C[C@@H]2C(=O)N[C@@H](Cc2c[nH]c3ccccc23)C(=O)N[C@@H](Cc2ccc(O)cc2)C(=O)N[C@@H](CCCN)C(=O)N[C@H](C(=O)NCC(N)=O)CSCC(=O)N[C@@H](Cc2ccc(F)c(F)c2)C(=O)N(C)[C@@H](Cc2ccccc2)C(=O)N1C [Example 9304]
